{"source": "patent US20200101019A1", "about": "“USE OF LIPOSOMES FOR TREATMENT OF CHRONIC VIRAL HEPATITIS B” (JIANGSU MENDEL GENE TECHNOLOGY CO., LTD, priority 2017, published 2020)", "origin": "cited, not measured here", "system": "Hepatitis B virus (HBV)", "settings": "AASLD Guidelines for Treatment of Chronic Hepatitis B, Hepatology 2016"}
{"smiles": "Nc1ncnc2c1ncn2CCOCP(=O)(O)O", "note": "[Adefovir]", "values": [{"measurement": "HBeAg/anti-HBe seroconversion rate after treatment with other drugs", "value": 12, "unit": "%"}]}
{"smiles": "C=C1[C@H](CO)[C@@H](O)C[C@@H]1n1cnc2c(=O)[nH]c(N)nc21", "note": "[Entecavir]", "values": [{"measurement": "HBeAg/anti-HBe seroconversion rate after treatment with other drugs", "value": 21, "unit": "%"}]}
